Experimental data published in PubChem BioAssay (NCI).
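All cell lines were grown in 96-well plates and treated with compound for 48 hours. The concentration for full growth arrest is given as TGI.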

What was measured:
Test in all cases: growth of human tumour cells (NCI), 48 h
A498 renal = test system: A498 renal
LOX IMVI melanoma = test system: LOX IMVI melanoma
SF-295 CNS = test system: SF-295 CNS
SNB-19 CNS = test system: SNB-19 CNS
NCI-H522 lung = test system: NCI-H522 lung
MCF7 breast = test system: MCF7 breast
HCC-2998 colon = test system: HCC-2998 colon
OVCAR-8 ovarian = test system: OVCAR-8 ovarian
U251 CNS = test system: U251 CNS
SK-MEL-2 melanoma = test system: SK-MEL-2 melanoma
TK-10 renal = test system: TK-10 renal
NCI/ADR-RES ovarian = test system: NCI/ADR-RES ovarian
OVCAR-4 ovarian = test system: OVCAR-4 ovarian
KM12 colon = test system: KM12 colon
HCT-116 colon = test system: HCT-116 colon
RPMI-8226 leukemia = test system: RPMI-8226 leukemia
T-47D breast = test system: T-47D breast
DMS 114 small cell lung = test system: DMS 114 small cell lung
SK-OV-3 ovarian = test system: SK-OV-3 ovarian
OVCAR-5 ovarian = test system: OVCAR-5 ovarian
CCRF-CEM leukemia = test system: CCRF-CEM leukemia
A549 NSCLC = test system: A549 NSCLC
SNB-78 CNS = test system: SNB-78 CNS
CAKI-1 renal = test system: CAKI-1 renal
MALME-3M melanoma = test system: MALME-3M melanoma
HOP-18 NSCLC = test system: HOP-18 NSCLC
BT-549 breast = test system: BT-549 breast
RXF 393 renal = test system: RXF 393 renal
IGROV1 ovarian = test system: IGROV1 ovarian
M14 melanoma = test system: M14 melanoma
UO-31 renal = test system: UO-31 renal
XF 498 CNS = test system: XF 498 CNS
786-0 renal = test system: 786-0 renal
PC-3 prostate = test system: PC-3 prostate
SK-MEL-5 melanoma = test system: SK-MEL-5 melanoma
MOLT-4 leukemia = test system: MOLT-4 leukemia
OVCAR-3 ovarian = test system: OVCAR-3 ovarian
NCI-H23 lung = test system: NCI-H23 lung
ACHN renal = test system: ACHN renal
DMS 273 small cell lung = test system: DMS 273 small cell lung
EKVX NSCLC = test system: EKVX NSCLC
NCI-H460 lung = test system: NCI-H460 lung
UACC-62 melanoma = test system: UACC-62 melanoma
MDA-MB-231 breast = test system: MDA-MB-231 breast
SNB-75 CNS = test system: SNB-75 CNS
DU-145 prostate = test system: DU-145 prostate
HCT-15 colon = test system: HCT-15 colon
HOP-62 NSCLC = test system: HOP-62 NSCLC
COLO 205 colon = test system: COLO 205 colon
KM20L2 colon = test system: KM20L2 colon
M19-MEL melanoma = test system: M19-MEL melanoma
SN12C renal = test system: SN12C renal
UACC-257 melanoma = test system: UACC-257 melanoma
SW-620 colon = test system: SW-620 colon
SK-MEL-28 melanoma = test system: SK-MEL-28 melanoma
MDA-MB-435 = test system: MDA-MB-435
HS 578T breast = test system: HS 578T breast
RXF-631 renal = test system: RXF-631 renal
LXFL 529 NSCLC = test system: LXFL 529 NSCLC
MDA-N = test system: MDA-N
SF-268 CNS = test system: SF-268 CNS
HL-60(TB) leukemia = test system: HL-60(TB) leukemia
SR leukemia = test system: SR leukemia
DLD-1 colon = test system: DLD-1 colon
HOP-92 NSCLC = test system: HOP-92 NSCLC
HT29 colon = test system: HT29 colon
NCI-H226 lung = test system: NCI-H226 lung
K-562 leukemia = test system: K-562 leukemia
SF-539 CNS = test system: SF-539 CNS

CC(=O)NC1COC(COC(=O)CCCCCCCCCCNC(=O)c2ccc([N+](=O)[O-])c3c(=O)c4ccccc4[nH]c23)C(O)C1OC(C)C(=O)NC(C(=O)NC(CCC(N)=O)C(=O)OCc1ccccc1)C(C)C (configuration not stated)
TGI (A498 renal): 47.7 µM | TGI (LOX IMVI melanoma): 30.1 µM | TGI (SF-295 CNS): 42.7 µM | TGI (SNB-19 CNS): 18.5 µM | TGI (NCI-H522 lung): 35.4 µM | TGI (MCF7 breast): 14.8 µM | TGI (HCC-2998 colon): 14.3 µM | TGI (OVCAR-8 ovarian): 44.1 µM | TGI (U251 CNS): 27.9 µM | TGI (SK-MEL-2 melanoma): 28.7 µM | TGI (TK-10 renal): 54.4 µM | TGI (NCI/ADR-RES ovarian): > 94.5 µM | TGI (OVCAR-4 ovarian): 30.3 µM | TGI (KM12 colon): 11.6 µM | TGI (HCT-116 colon): 42.7 µM | TGI (RPMI-8226 leukemia): 23.1 µM | TGI (T-47D breast): 13 µM | TGI (DMS 114 small cell lung): 30.4 µM | TGI (SK-OV-3 ovarian): 78.8 µM | TGI (OVCAR-5 ovarian): > 81.5 µM | TGI (CCRF-CEM leukemia): 62.7 µM | TGI (A549 NSCLC): 71.9 µM | TGI (SNB-78 CNS): > 22.8 µM | TGI (CAKI-1 renal): 23.4 µM | TGI (MALME-3M melanoma): > 83.8 µM | TGI (HOP-18 NSCLC): 43.9 µM | TGI (BT-549 breast): > 83.1 µM | TGI (RXF 393 renal): 23.2 µM | TGI (IGROV1 ovarian): 18.3 µM | TGI (M14 melanoma): 66.3 µM | TGI (UO-31 renal): 19.1 µM | TGI (XF 498 CNS): 34.8 µM | TGI (786-0 renal): > 58.6 µM | TGI (PC-3 prostate): 26.4 µM | TGI (SK-MEL-5 melanoma): 57.9 µM | TGI (MOLT-4 leukemia): 61.3 µM | TGI (OVCAR-3 ovarian): 9.57 µM | TGI (NCI-H23 lung): 27.3 µM | TGI (ACHN renal): 39.4 µM | TGI (DMS 273 small cell lung): 27.3 µM | TGI (EKVX NSCLC): 27.8 µM | TGI (NCI-H460 lung): 39.7 µM | TGI (UACC-62 melanoma): 58.9 µM | TGI (MDA-MB-231 breast): > 100 µM | TGI (SNB-75 CNS): 55.6 µM | TGI (DU-145 prostate): 12.3 µM | TGI (HCT-15 colon): 50.2 µM | TGI (HOP-62 NSCLC): 24.4 µM | TGI (COLO 205 colon): 41.2 µM | TGI (KM20L2 colon): 33.5 µM | TGI (M19-MEL melanoma): 10.7 µM | TGI (SN12C renal): > 92.6 µM | TGI (UACC-257 melanoma): 38.6 µM | TGI (SW-620 colon): > 72.8 µM | TGI (SK-MEL-28 melanoma): 41.7 µM | TGI (MDA-MB-435): > 100 µM | TGI (HS 578T breast): 17.6 µM | TGI (RXF-631 renal): > 100 µM | TGI (LXFL 529 NSCLC): > 60.6 µM | TGI (MDA-N): 75 µM | TGI (SF-268 CNS): 32.8 µM | TGI (HL-60(TB) leukemia): 6.72 µM | TGI (SR leukemia): 46.5 µM | TGI (DLD-1 colon): 10.1 µM | TGI (HOP-92 NSCLC): 31.5 µM | TGI (HT29 colon): 22.2 µM | TGI (NCI-H226 lung): 85.5 µM | TGI (K-562 leukemia): 54.2 µM | TGI (SF-539 CNS): 58.3 µM

CCOC(=O)CN(c1ccccc1)c1nc(=[N+](C)C)ss1
TGI (A498 renal): > 100 µM | TGI (SNB-19 CNS): > 100 µM | TGI (NCI-H522 lung): 0.492 µM | TGI (HCC-2998 colon): > 100 µM | TGI (OVCAR-8 ovarian): 70.1 µM | TGI (U251 CNS): 41.5 µM | TGI (SK-MEL-2 melanoma): 55.9 µM | TGI (TK-10 renal): > 100 µM | TGI (OVCAR-4 ovarian): 32.7 µM | TGI (HCT-116 colon): > 100 µM | TGI (RPMI-8226 leukemia): 55.5 µM | TGI (DMS 114 small cell lung): 27.7 µM | TGI (SK-OV-3 ovarian): > 100 µM | TGI (CCRF-CEM leukemia): 36.5 µM | TGI (A549 NSCLC): > 100 µM | TGI (SNB-78 CNS): > 100 µM | TGI (CAKI-1 renal): 87.8 µM | TGI (MALME-3M melanoma): 70.4 µM | TGI (HOP-18 NSCLC): > 100 µM | TGI (RXF 393 renal): > 100 µM | TGI (M14 melanoma): 96.8 µM | TGI (UO-31 renal): 54.5 µM | TGI (786-0 renal): > 100 µM | TGI (MOLT-4 leukemia): 28.2 µM | TGI (OVCAR-3 ovarian): 2 µM | TGI (ACHN renal): > 100 µM | TGI (DMS 273 small cell lung): 33.8 µM | TGI (UACC-62 melanoma): 59.3 µM | TGI (SNB-75 CNS): > 100 µM | TGI (HCT-15 colon): 56.5 µM | TGI (HOP-62 NSCLC): > 100 µM | TGI (COLO 205 colon): 15.4 µM | TGI (KM20L2 colon): > 100 µM | TGI (M19-MEL melanoma): 34 µM | TGI (SN12C renal): 36.7 µM | TGI (UACC-257 melanoma): 96 µM | TGI (SW-620 colon): > 100 µM | TGI (SK-MEL-28 melanoma): > 100 µM | TGI (SF-268 CNS): > 100 µM | TGI (HL-60(TB) leukemia): 48.4 µM | TGI (SR leukemia): 41.9 µM | TGI (DLD-1 colon): > 100 µM | TGI (NCI-H226 lung): 75.4 µM | TGI (K-562 leukemia): > 100 µM | TGI (SF-539 CNS): > 100 µM

CC(C)c1ccc(/C=C/c2cc(C(=O)NNC(=O)NC3CCCCC3)nc(=S)[nH]2)cc1
TGI (A498 renal): > 100 µM | TGI (LOX IMVI melanoma): > 100 µM | TGI (SF-295 CNS): > 100 µM | TGI (SNB-19 CNS): > 100 µM | TGI (NCI-H522 lung): > 100 µM | TGI (HCC-2998 colon): > 100 µM | TGI (OVCAR-8 ovarian): > 100 µM | TGI (U251 CNS): > 100 µM | TGI (TK-10 renal): > 100 µM | TGI (OVCAR-4 ovarian): > 100 µM | TGI (KM12 colon): > 100 µM | TGI (HCT-116 colon): > 100 µM | TGI (RPMI-8226 leukemia): > 100 µM | TGI (DMS 114 small cell lung): > 100 µM | TGI (SK-OV-3 ovarian): > 100 µM | TGI (OVCAR-5 ovarian): > 100 µM | TGI (A549 NSCLC): > 100 µM | TGI (SNB-78 CNS): > 100 µM | TGI (CAKI-1 renal): > 100 µM | TGI (MALME-3M melanoma): > 100 µM | TGI (HOP-18 NSCLC): > 100 µM | TGI (RXF 393 renal): > 100 µM | TGI (IGROV1 ovarian): > 100 µM | TGI (M14 melanoma): > 100 µM | TGI (UO-31 renal): > 100 µM | TGI (XF 498 CNS): > 100 µM | TGI (786-0 renal): > 100 µM | TGI (SK-MEL-5 melanoma): > 100 µM | TGI (OVCAR-3 ovarian): > 100 µM | TGI (NCI-H23 lung): > 100 µM | TGI (ACHN renal): > 100 µM | TGI (DMS 273 small cell lung): > 100 µM | TGI (EKVX NSCLC): > 100 µM | TGI (NCI-H460 lung): > 100 µM | TGI (UACC-62 melanoma): > 100 µM | TGI (SNB-75 CNS): > 100 µM | TGI (HCT-15 colon): > 100 µM | TGI (HOP-62 NSCLC): > 100 µM | TGI (COLO 205 colon): > 100 µM | TGI (KM20L2 colon): > 100 µM | TGI (M19-MEL melanoma): > 100 µM | TGI (SN12C renal): > 100 µM | TGI (UACC-257 melanoma): > 100 µM | TGI (SW-620 colon): > 100 µM | TGI (SK-MEL-28 melanoma): > 100 µM | TGI (RXF-631 renal): > 100 µM | TGI (LXFL 529 NSCLC): > 100 µM | TGI (SF-268 CNS): > 100 µM | TGI (DLD-1 colon): > 100 µM | TGI (HOP-92 NSCLC): > 100 µM | TGI (HT29 colon): > 100 µM | TGI (NCI-H226 lung): > 100 µM | TGI (SF-539 CNS): > 100 µM
